Measured values taken from patent US12522616B2, “Thiazololactam compound as ERK inhibitor and use thereof” (D3 BIO (WUXI) CO., LTD., priority 2019, dated 2026).

What was measured:
[1] = In vivo DMPK assay in mouse; conditions: female BALB/c mice; for Oral DNAUC (AUCPO/Dose) / bioavailability / Cmax: 3 mg/kg orally; for clearance / Vd / bioavailability / half-life / Cmax: mouse, plasma; for clearance / Vd: iv; for clearance / Vd / bioavailability: 1 mg/kg intravenously; for clearance: read-out: Cl (clearance rate); for Vd: read-out: Vdss (distribution volume); for bioavailability / Cmax: po; for bioavailability: read-out: F % (oral bioavailability); for half-life: single administration, read-out: T1/2 (half-life) (converted); for Cmax: read-out: Cmax (maximum concentration)
Source text: Assay Example 3. Assay of In Vivo DMPK
In vivo DMPK assay in mouse
Female BALB/c mice were used as assay animals to determine the blood concentration of compounds and evaluate the pharmacokinetic behavior after a single administration.
Eight healthy adult female BALB/c mice were selected, wherein 4 mice were in the intravenous injection group and 4 mice were in the oral group. The vehicle in the intravenous injection group was 5% DMSO+95% (20% HP-β-CD). The compound to be assayed was mixed with an appropriate amount of vehicle for intravenous injection, vortexed and sonicated to prepare a clear solution of 0.5 mg/mL. The clear solution was filtered by a microporous membrane, and then ready for use. The vehicle in the oral group was 5% DMSO+95% (20% HP-β-CD). The compound to be assayed was mixed with the vehicle, vortexed and sonicated to prepare a solution of 0.3 mg/mL. Mice were administered 1 mg/kg intravenously or 3 mg/kg orally, and then whole blood was collected for a certain period. Plasma was prepared. The drug concentration was analyzed by LC-MS/MS method, and the pharmacokinetic parameters were calculated by Phoenix WinNonlin software (Pharsight, USA).
Note: DMSO: dimethyl sulfoxide; HP-β-CD: hydroxypropyl-β-cyclodextrin.

HT29 tumor cells = test: Assay of in vitro cell proliferation inhibition (CellTiterGlo); type: cell-based; conditions: Homo sapiens, HT-29
Experimental: Assay Example 2. Assay of In Vitro Cell Proliferation Inhibition
The ability of compounds to inhibit the proliferation of HT29 tumor cells was measured.
The assay compound was dissolved in 100% DMSO to prepare 10 mM stock solution.
• 1) UV light of a biological safety cabin was turned on, and 30 minutes were counted down; • 2) In a 37° C. water bath, RPMI1640 medium and trypsin were preheated; • 3) After completion of the UV irradiation, the biological safety cabin was opened. • The preheated medium, trypsin and phosphate buffered saline (PBS), etc. were wiped with alcohol and placed in the biological safety cabin; • 4) HT29 cells were removed from the incubator, and the old medium was removed in biological safety cabin. 10 ml of PBS was added. The mixture was shaken gently, and then PBS was removed; • 5) 1.5 ml of preheated 0.25% trypsin was added. The culture vessel was shaken horizontally so that the trypsin evenly covered the cells at the bottom, and placed in an incubator for 2 minutes; • 6) Cell digestion was stopped with complete medium, and the cell suspension was pipetted to homogeneity and counted; • 7) According to the result of cell counting, the density of cell suspension was adjusted to 1500 cells per well, and the cell suspension was seeded at 50 μl per well; • 8) The stock solution of compounds was serially diluted in DMSO solution, and compounds were added to cell plate using Tecan; • 9) The compound-added cell plate and CellTiterGlo were equilibrated at room temperature, and 25 microliters of CellTiterGlo was then added to each well. The cell plate was shaken for 1-2 minutes and then allowed to stand for 10 minutes. The signal value was then detected. The data were analyzed using XL-Fit, and the IC50 of each compound was calculated. 4.

ERK2 kinase = ERK2 kinase (Homo sapiens (Human), UniProt P28482); test: Assay of in vitro kinase activity (33P-ATP filter-binding, MBP substrate); type: biochemical; conditions: remaining kinase activity vs DMSO control
Experimental: Assay Example 1. Assay of In Vitro Kinase Activity
The ability of compounds to inhibit ERK2 kinase activity was measured.
20 mM Hepes (pH 7.5), 10 mM MgCl2, 1 mM ethylenebis(oxyethylenenitrilo)tetraacetic acid (EGTA), 0.02% Brij35, 0.02 mg/mL bovine serum albumin (BSA), 0.1 mM Na3VO4, 2 mM dithiothreitol (DTT), 1% DMSO.
The assay compound was dissolved in 100% DMSO to prepare a stock solution of specific concentration. The compound was serially diluted in DMSO solution using Integra Viaflo Assist smart pipette.
• 1) The substrate MBP was prepared in freshly prepared reaction buffer; • 2) ERK2 kinase was added to the above-mentioned MBP solution and mixed gently; • 3) The compound dissolved in 100% DMSO was added to the kinase reaction system using ultrasound technology (Echo550; nanoliter range), and the mixture was incubated at room temperature for 20 minutes; • 4)^33P-ATP (specific concentration of […]) was added to the reaction system, and the reaction was started at this time; • 5) The mixture was incubated at room temperature for 2 hours; • 6) The amount of radioactivity was detected by filter-binding method; • 7) ERK2 kinase activity was calculated as the ratio of the remaining kinase activity in the assay sample to the kinase activity of the control group (treated by DMSO). Curve was fitted using Prism (GraphPad software) and IC50 values were calculated. 5.

[2] = test system: human non-small cell lung cancer H358 cells; test: In vivo efficacy in mouse H358 subcutaneous xenograft model; conditions: BALB/c nude mouse, 30 mg/kg PO QD
Experimental: Animals were monitored daily for health and death. […] Animal deaths and side effects in each group were recorded based on the number of animals in each group. […] 5.

Chain of ERK2 kinase (P28482 whole entry): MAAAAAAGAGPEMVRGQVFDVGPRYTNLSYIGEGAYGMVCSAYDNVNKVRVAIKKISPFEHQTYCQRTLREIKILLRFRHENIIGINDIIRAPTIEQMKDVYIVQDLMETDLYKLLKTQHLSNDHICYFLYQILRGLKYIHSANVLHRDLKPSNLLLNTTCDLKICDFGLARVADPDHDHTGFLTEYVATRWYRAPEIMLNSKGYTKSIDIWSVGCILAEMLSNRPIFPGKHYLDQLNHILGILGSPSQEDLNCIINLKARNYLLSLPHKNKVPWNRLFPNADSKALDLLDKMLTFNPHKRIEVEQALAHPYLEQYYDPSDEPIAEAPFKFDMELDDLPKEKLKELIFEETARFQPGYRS

## Cn1nccc1Nc1nccc(-c2nc3c(s2)C(C)(C)N(Cc2cccc(Cl)c2)C3=O)n1 [WX001]
[1]
  Oral DNAUC (AUCPO/Dose): 2153 nM · h/mpk
  clearance: 14.3 mL/min/kg
  Vd: 1.1 L/kg
  bioavailability: 86%
  half-life: 0.9 h
  Cmax: 3360 nM
HT29 tumor cells
  IC50: 14 nM
ERK2 kinase
  IC50: 0.24 nM

## Cn1nccc1Nc1nccc(-c2nc3c(s2)C(C)(C)N(Cc2cccc(F)c2)C3=O)n1 [WX002]
HT29 tumor cells
  IC50: 24 nM
ERK2 kinase
  IC50: 0.35 nM

## Cn1nccc1Nc1nccc(-c2nc3c(s2)C(C)(C)N(Cc2ccc(F)c(F)c2)C3=O)n1 [WX003]
HT29 tumor cells
  IC50: 27 nM
ERK2 kinase
  IC50: 0.37 nM

## CC1(C)c2sc(-c3ccnc(NC4CCOCC4)n3)nc2C(=O)N1Cc1cccc(F)c1 [WX004]
HT29 tumor cells
  IC50: 35 nM
ERK2 kinase
  IC50: 0.25 nM

## Cc1cnc(Nc2ccnn2C)nc1-c1nc2c(s1)C(C)(C)N(Cc1cccc(Cl)c1)C2=O [WX005]
[1]
  Oral DNAUC (AUCPO/Dose): 468 nM · h/mpk
  Cmax: 1030 nM
HT29 tumor cells
  IC50: 8 nM
ERK2 kinase
  IC50: 0.05 nM

## Cc1cnc(Nc2ccnn2C)nc1-c1nc2c(s1)C(C)(C)N(Cc1cccc(F)c1)C2=O [WX006]
[1]
  Oral DNAUC (AUCPO/Dose): 530 nM · h/mpk
  clearance: 23 mL/min/kg
  Vd: 1.7 L/kg
  bioavailability: 34%
  half-life: 1 h
  Cmax: 1040 nM
HT29 tumor cells
  IC50: 7 nM
[2]; to the 28th day
  body weight of assay animals: did not decrease significantly
  morbidity or death: no morbidity or death
[2]; H358 xenograft, 28th day
  TGI (inhibition rate of tumor growth): 94%
ERK2 kinase
  IC50: 0.3 nM

## CC1(C)c2sc(-c3ccnc(NC4CCOCC4)n3)nc2C(=O)N1Cc1cccc(Cl)c1 [WX007]
HT29 tumor cells
  IC50: 26 nM
ERK2 kinase
  IC50: 0.39 nM

## Cc1cnc(Nc2ccnn2C(F)F)nc1-c1nc2c(s1)C(C)(C)N(Cc1cccc(F)c1)C2=O [WX008]
HT29 tumor cells
  IC50: 58 nM
ERK2 kinase
  IC50: 0.52 nM

## [2H]C([2H])([2H])n1nccc1Nc1ncc(C)c(-c2nc3c(s2)C(C)(C)N(Cc2cccc(F)c2)C3=O)n1 [WX009]
[1]
  Oral DNAUC (AUCPO/Dose): 820 nM · h/mpk
  clearance: 28 mL/min/kg
  Vd: 1.7 L/kg
  bioavailability: 67%
  half-life: 1.7 h
  Cmax: 1170 nM
HT29 tumor cells
  IC50: 6 nM
ERK2 kinase
  IC50: 0.64 nM

## Cc1cc(Nc2ncc(C)c(-c3nc4c(s3)C(C)(C)N(Cc3cccc(F)c3)C4=O)n2)n(C)n1 [WX010]
HT29 tumor cells
  IC50: 27 nM
ERK2 kinase
  IC50: 0.14 nM

## COCCn1nccc1Nc1ncc(C)c(-c2nc3c(s2)C(C)(C)N(Cc2cccc(F)c2)C3=O)n1 [WX011]
HT29 tumor cells
  IC50: 26 nM
ERK2 kinase
  IC50: 0.98 nM

## Cc1cnc(Nc2ccnn2C2CC2)nc1-c1nc2c(s1)C(C)(C)N(Cc1cccc(F)c1)C2=O [WX012]
HT29 tumor cells
  IC50: 37 nM
ERK2 kinase
  IC50: 0.48 nM

## COc1cc(Nc2ncc(C)c(-c3nc4c(s3)C(C)(C)N(Cc3cccc(F)c3)C4=O)n2)n(C)n1 [WX013]
HT29 tumor cells
  IC50: 18 nM
ERK2 kinase
  IC50: 0.19 nM
